Data taken from article PMC12067444, “Synthesis and Pharmacological Characterization of Novel Peripheral Cannabinoid-1 Receptor Blockers Based on a Tricyclic Scaffold” (Journal of Medicinal Chemistry, 2025).
Where two headings read alike, the source gives them in different places.

How the values were obtained:
[1] = target: hERG cardiac potassium channel (Homo sapiens, UniProt Q12809); experiment: hERG automated patch clamp (SyncroPatch 384PE); type: cell-based; conditions: whole cell hERG currents
Chain of hERG cardiac potassium channel (Q12809 whole entry): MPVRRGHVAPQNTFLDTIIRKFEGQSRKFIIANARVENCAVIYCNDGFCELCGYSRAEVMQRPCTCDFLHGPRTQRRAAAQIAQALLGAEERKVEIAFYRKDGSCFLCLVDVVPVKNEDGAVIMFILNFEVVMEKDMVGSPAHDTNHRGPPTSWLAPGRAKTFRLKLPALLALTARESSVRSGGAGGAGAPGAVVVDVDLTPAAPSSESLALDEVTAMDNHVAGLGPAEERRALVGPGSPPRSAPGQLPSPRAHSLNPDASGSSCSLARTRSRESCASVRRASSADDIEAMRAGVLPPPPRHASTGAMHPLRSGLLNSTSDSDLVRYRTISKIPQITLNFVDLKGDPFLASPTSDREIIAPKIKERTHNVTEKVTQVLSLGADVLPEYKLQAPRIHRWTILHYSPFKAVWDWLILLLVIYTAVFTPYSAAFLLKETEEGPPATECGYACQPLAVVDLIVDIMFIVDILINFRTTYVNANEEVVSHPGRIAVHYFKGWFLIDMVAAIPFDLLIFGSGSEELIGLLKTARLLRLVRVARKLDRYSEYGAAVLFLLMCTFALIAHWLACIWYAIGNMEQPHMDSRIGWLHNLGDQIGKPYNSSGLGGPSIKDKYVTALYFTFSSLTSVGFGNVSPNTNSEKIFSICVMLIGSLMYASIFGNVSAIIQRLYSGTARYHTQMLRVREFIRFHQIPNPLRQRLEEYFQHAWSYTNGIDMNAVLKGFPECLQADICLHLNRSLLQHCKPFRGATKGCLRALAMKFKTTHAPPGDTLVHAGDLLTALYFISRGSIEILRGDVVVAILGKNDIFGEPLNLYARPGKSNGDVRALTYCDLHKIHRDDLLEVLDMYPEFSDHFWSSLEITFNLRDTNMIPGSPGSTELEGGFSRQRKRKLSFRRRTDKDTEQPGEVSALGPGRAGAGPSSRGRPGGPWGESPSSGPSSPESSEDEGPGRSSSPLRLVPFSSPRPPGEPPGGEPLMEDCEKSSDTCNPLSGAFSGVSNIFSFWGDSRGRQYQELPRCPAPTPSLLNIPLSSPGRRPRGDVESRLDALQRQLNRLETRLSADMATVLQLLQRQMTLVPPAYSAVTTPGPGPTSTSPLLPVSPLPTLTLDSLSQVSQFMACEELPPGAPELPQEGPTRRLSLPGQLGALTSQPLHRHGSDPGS

HepG2 cells = experiment: Cell viability assay (CellTiter Glo); type: cell-based; conditions: 72 h; for IC50: Homo sapiens
Method: Cell viability assay. To assess the cell viability, which indicates the toxicity of the novel compounds, a total of 3,000 HepG2 cells were seeded into a 384-well plate. The compounds were then dispensed onto the cell plate using a Tecan D300e digital dispenser. Following compound addition, 35 μL CellTiter Glo reagent was added to all wells of the assay plate, and the plate was mixed for 30 sec on an or bital shaker to lyse cells. Subsequently, the plate was incubated at room temperature for 10 minutes. The luminescence signal was measured using a 384-well plate reader (EnVision). The obtained data were analyzed using XL-fit software (ID Business Solutions Ltd., Software version: XL fit 5. 5. 0. 5). The percentage of inhibition was calculated using the […]
Inhibition (%) = (1-Sample / ZPE) ×100
Sample represents the test compound's luminesc e nce signal, and ZPE represents the luminescence signal f r om the zer o-percent enzyme control.

human CB1R = target: T1, human CB1R (Homo sapiens, UniProt P21554); experiment: Radioligand competition displacement binding, [3H]CP-55,940, membranes with human CB1R
T1 construct: purchased PerkinElmer RBHCB1M400UA
T1 sequence (P21554 whole entry): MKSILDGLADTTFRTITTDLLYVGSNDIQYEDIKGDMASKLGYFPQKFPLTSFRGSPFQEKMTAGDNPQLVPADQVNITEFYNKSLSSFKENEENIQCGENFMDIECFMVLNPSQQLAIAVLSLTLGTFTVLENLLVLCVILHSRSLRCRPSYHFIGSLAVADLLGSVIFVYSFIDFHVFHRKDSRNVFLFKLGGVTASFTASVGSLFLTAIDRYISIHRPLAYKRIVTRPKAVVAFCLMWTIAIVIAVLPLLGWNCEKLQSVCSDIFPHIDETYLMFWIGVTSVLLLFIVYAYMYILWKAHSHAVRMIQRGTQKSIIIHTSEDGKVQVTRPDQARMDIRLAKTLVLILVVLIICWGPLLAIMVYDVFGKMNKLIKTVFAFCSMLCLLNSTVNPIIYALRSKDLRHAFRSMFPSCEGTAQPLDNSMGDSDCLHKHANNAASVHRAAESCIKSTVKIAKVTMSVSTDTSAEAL
Method: BNS compounds’ binding to CB1R and CB2R was assessed in competition displacement assays using [^3H]CP-55,940 as the radioligand and crude membranes from mouse brain or human cells overexpressing the CB1R or CB2R. All data were in triplicates with Ki values determined from three independent experiments. See SI for a detailed procedure. […]
Radioligand binding assays were performed to asse ss the binding affinity of the different compounds to hCB1R (RBHCB1M4 00UA; Per kinElmer) or hCB 2R
(RBXCB2 M400UA; PerkinElmer). Competition displacement as says w ere employed, […]
utilizing [3H] C P -55,940 as the radioligand and crude membranes from humans for CB1 R or CB2 R. T he compounds were tested at various concentrations (eight points with a five-fold serial dilution starting at two m M) , and their ability to displace [3H] CP - 55, 940 was evaluated. Upon completion of the binding assays, the reaction mixture was filtered through GF/C plates, followed by four washes with cold wash buffer. After drying for one hour, 50 μL of Perkin Elmer Microscint 20 cocktail was added to the filter plate wells, and the bound [3H] C P -55,940 radioligand was measured using a β counter. All data points were duplicated, and Ki values were determined from two independent experiments using GraphPad Prism 7.02 analysis software, extracted through nonlinear regression analysis. […]

mouse CB1R = target: T2, mouse CB1R (Mus musculus, UniProt P47746); experiment: Radioligand competition displacement binding, [3H]CP-55,940, mouse brain membranes
T2 construct: crude membranes from mouse brain; from tissue; host or cells: mouse brain cortex (without cerebellum) membranes, C57Bl/6Jhsd mice
T2 sequence (P47746 whole entry): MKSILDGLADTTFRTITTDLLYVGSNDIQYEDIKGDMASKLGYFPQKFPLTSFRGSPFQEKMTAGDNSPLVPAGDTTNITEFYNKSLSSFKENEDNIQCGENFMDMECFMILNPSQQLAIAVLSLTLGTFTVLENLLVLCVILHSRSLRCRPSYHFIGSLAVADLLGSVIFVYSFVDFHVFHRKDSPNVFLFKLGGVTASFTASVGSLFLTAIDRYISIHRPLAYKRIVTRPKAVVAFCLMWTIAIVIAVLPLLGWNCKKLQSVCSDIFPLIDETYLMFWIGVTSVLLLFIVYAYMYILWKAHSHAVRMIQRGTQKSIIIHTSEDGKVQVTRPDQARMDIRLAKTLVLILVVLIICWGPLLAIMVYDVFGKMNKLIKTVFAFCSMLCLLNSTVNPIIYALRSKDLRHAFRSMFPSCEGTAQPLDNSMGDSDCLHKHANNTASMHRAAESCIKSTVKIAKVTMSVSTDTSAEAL
Method: BNS compounds’ binding to CB1R and CB2R was assessed in competition displacement assays using [^3H]CP-55,940 as the radioligand and crude membranes from mouse brain or human cells overexpressing the CB1R or CB2R. All data were in triplicates with Ki values determined from three independent experiments. See SI for a detailed procedure.
Supplementary Experimental Methods
Brain membrane preparation for CB1R b i nd i ng . The mouse cortex, excluding the cerebellum, was dissected from 6-week-old C57Bl/6Jhsd mice (Harlan, Israel). The tissue was homogenized in 4 mL Buffer 1 (320 mM sucrose, 2 mM EDTA, 5 m M MgCl 2) using a glass-Teflon homogenizer and Hei-T ORQUE 200 (Heidolph; Cat# 17-012- 002- 25 -1) homogenizer set to 132 rpm. After homogenization, the mixture was centrifuged at 1,600 × g for 10 min at four °C, and the resulting supernatant was kept on ice. The pellet (P1) was discarded, and the remaining supernatant was subje cted to additional rounds of resuspension in 4 mL Buffer 1 followed by centrifugations, repeating this process three times. The pellets obtained from these centrifugations were discarded, and the three supernatant fractions were combined and subjected to higher-speed centrifugation at 39,000 × g for 15 min at f ou r °C. […] This resuspended pellet ( P 2 ) was incubated at 37 °C for 10 min and then centrifuged at 23, 000 × g for 10 min at 4°C.
After centrifugation, the pellet (P2) was resuspended in 5 mL Buffer 2 and further incubated at 30 °C for 40 min. Following this incubation, the suspension was centrifuged at 11,000 × g for 15 min at 4 °C. The pellet (P2) was resuspended in 2 mL Buffer 3 containing 50 mM TRIS HCl pH 7.4, 1 mM EDTA, and 3 mM MgCl 2. T h e protein concentration of the final suspension was determined using the BCA assay.
Subsequently, the suspension was diluted to a final concentration of 2 mg/mL in Buffer 3, aliquoted on ice, and stored at - 80 °C for further use.
CB1R and CB2R binding. Binding to the CB1R/CB2R was asse ss ed using competition displacement as says with [ 3H] CP -55,940 as the radioligand. Purified membranes from the mouse brain were utilized for CB1R assessment (as described above). Purified […]
membranes from cells overexpressing human CB2R ( Char les River CAT # A618) w e r e employed for CB2R evaluation.
For mouse CB1R binding assays, the novel compounds were dissolved in dimethyl sulfoxide (DMSO) to reach a final concentration of 10 mM. Each compound was then diluted in Buffer 3 (as described above) supplemented with 0.14% BSA, resulting in concentrations ranging from 10^-4 M to 10^-10 M. Triplicates of 100 µL of each concentration were dispensed into siliconized glass tubes. At the same time, 100 µL of Buffer 3 with 0.14% BSA was dispensed into three tubes as blanks. CB1R b r a i n membranes (20 µg) were added to each tube and diluted with 800 µL Buffer 3 with 0.14% BSA. Subsequently, 5 nM of [ 3H] CP -55,940 (100 µL) was added to each tube.
The tubes were sealed with parafilm and incubated with shaking (120 rpm) in a water bath at 30 °C for 1 hour. Following incubation, 2 mL of cold Buffer 4 (50 mM TRIS HCl pH 7.4, 1 mg/mL BSA) was added to each tube.
To harvest the content of each tube, a Brandel M-24R Vacuum Harvester was employed, with a wet WHATMAN GF/B filter paper (Fired) (one membrane for 12 tubes) placed in the harvester after being washed twice with Buffer 4. The filter membrane in the harvester absorbed the full content of each tube. Then, the filter membrane was wash ed six times with Buffer 4. Each filter -glass membrane tube wa s excised and transferred to a 20 mL glass tube co ntaining a 5 mL ULTIMA GOLD scintillation cocktail. […]

[2] = read-out: cell viability Absolute IC50
[3] = read-out: cell viability relative IC50
[4] = human CB1R, read-out: CB1R hIC50
[5] = [3H]CP-55,940 displacement, mouse brain membranes, read-out: CB1R mKi

Row | Compound | IC50 [1] | Bottom (%) of cell viability inhibition curve (HepG2 cells) | Slope of cell viability inhibition curve (HepG2 cells) | Top (%) of cell viability inhibition curve (HepG2 cells) | IC50 (HepG2 cells; [2]) | IC50 (HepG2 cells; [3]) | IC50 (human CB1R; [4]) | Ki (mouse CB1R; [5]) | IC50 (human CB1R) | Ki (mouse CB1R) | Ki (human CB1R; [3H]CP-55,940 displacement, human CB1R membranes, read-out: CB1R hKi)
1 | Cc1ccc(S(=O)(=O)NC2CCCOc3c2nn(-c2ccccc2Cl)c3-c2ccc(Cl)cc2)cc1 (stereo not shown) [BNS807] | 18 µM | -12.17% | 1.52 | 21.39% | > 100 µM | 17.9 µM | 0.0015 µM | 0.01 µM | – | – | –
2 | O=S(=O)(NC1CCCOc2c1nn(-c1ccccc1Cl)c2-c1ccc(Cl)cc1)c1ccc(Cl)cc1 (stereo not shown) [BNS808, 4-chloro-N-[2-(2-chlorophenyl)-3-(4-chlorophenyl)-5,6,7,8-tetrahydrooxepino[3,2-c]pyrazol-8-yl]benzenesulfonamide] | 5.39 µM | -8.11% | 3.39 | 62.98% | 26.2 µM | 16.8 µM | – | – | 0.0008 µM | 0.0007 µM | –
3 | CS(=O)(=O)N1CCC(C(=O)NC2CCCOc3c2nn(-c2ccccc2Cl)c3-c2ccc(Cl)cc2)CC1 (stereo not shown) [BNS815, N-[2-(2-Chlorophenyl)-3-(4-chlorophenyl)-5,6,7,8-tetrahydrooxepino[3,2-c]pyrazol-8-yl]-1-methylsulfonyl-piperidine-4-carboxamide] | 4.86 µM | -9.25% | 3.71 | 80.41% | 55.9 µM | 46.7 µM | 0.0101 µM | 0.018 µM | – | – | 0.00909 µM
